Experimental data published in patent US20210215714A1, “COMPLEMENT ALTERNATIVE PATHWAY-ASSOCIATED NEPHROPATHY BIOMARKERS” (Achillion Pharmaceuticals, Inc., priority 2018, published 2021).

Key:
Bb = assay: Phase 2a study: Bb levels in plasma; type: in vivo, human; settings: 14-day treatment, patients A-F
Method: (§1) Systemic complement proteins were measured in serum and plasma including serum Ba, plasma Bb, serum C3, serum Factor D, serum C4, and % Fragment C3.

C3c = assay: Phase 2a study: urinary C3c (Hycult Human C3c Elisa Kit);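 also: urine from C3 glomerulopathy or IC-MPGN patients, C3c quantified by sandwich ELISA with absorbance read at 450 nm against a human C3c standard curve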
Method: To measure urinary C3c production, patient urine samples were tested utilizing the Hycult Biotech Human C3c Elisa Kit (HK368) for the quantitation of C3c in urine. […] Urine samples were thawed and centrifuged at 15,000 rpm for one minute. The supernatant was transferred to a fresh tube and diluted with C3c dilution buffer. Samples and standards were added to microtiter wells coated with antibodies recognizing human C3c and incubated at 1 hour at 15-25° C. Following incubation, the wells were washed 4 times with Wash Solution, with an incubation period of 1 minute each time. A biotinylated tracer antibody was added and used to bind to the captured human C3c. Streptavidin-peroxidase conjugate was then added to bind to the biotinylated tracer antibody. Tetramethylbenzidine (TMB) was then added to the Streptavidin-peroxidase conjugate. The enzyme reaction was stopped by the addition of oxalic acid. The absorbance at 450 nm was measured with a spectrophotometer. A standard curve was obtained by plotting the absorbance (linear) versus the corresponding concentrations of the human C3c standards (log). The human C3c concentration of samples, which are run concurrently with the standards, were determined from the standard curve.

Factor D = assay: Phase 2a study: Factor D levels in serum; type: in vivo, human; settings: 14-day treatment, patients A-F
Method: as §1
(§2) Factor D levels in serum were measured using a quantitative sandwich enzyme immunoassay technique. A monoclonal antibody specific for human Complement Factor D was pre-coated onto a micro-assay plate. Standards and samples were pipetted into the wells and any Complement Factor D present was bound by the immobilized antibody. After washing away any unbound substances, an enzyme-linked polyclonal antibody specific for human Complement Factor D was added to the wells. Following a wash to remove any unbound antibody-enzyme reagent, a substrate solution was added to the wells and color develops in proportion to the amount of Complement Factor D bound in the initial step. The color development was stopped and the intensity of the color was measured spectrophotometrically at 450 nm.

AP activity = assay: PNH erythrocyte hemolysis (AP activity in vitro); type: cell-based
C3 = assay: Phase 2a study: C3 levels in serum; type: in vivo, human; settings: 14-day treatment, patients A-F
Method: as §1
as §2, with “C3” for “Factor D”, “C3” for “Complement Factor D”, “measured. […] Patients E and F show similar results.” for “measured spectrophotometrically at 450 nm.”

Compound: CC(=O)c1nn(CC(=O)N2C[C@H](F)C[C@H]2C(=O)Nc2cccc(Br)n2)c2ccc(-c3cnc(C)nc3)cc12 [Compound 1, (2S,4R)-1-(2-(3-acetyl-5-(2-methylpyrimidin-5-yl)-1H-indazol-1-yl)acetyl)-N-(6-bromopyridin-2-yl)-4-fluoropyrrolidine-2-carboxamide]
- Plasma Bb (Bb): reduced
- uC3c (C3c; Patient A, 100 mg TID, Day 1 predose): 25.4 ng/mL
- uC3c (C3c; Patient A, 100 mg TID, Day 4): 15.2 ng/mL
- uC3c (C3c; Patient A, 100 mg TID, Day 7-0 Hour): 7.1 ng/mL
- uC3c (C3c; Patient A, 100 mg TID, Day 10): 9.9 ng/mL
- uC3c (C3c; Patient A, 100 mg TID, Day 14): 3.6 ng/mL
- uC3c (C3c; Patient A, 100 mg TID, Day 15 Taper): 6.8 ng/mL
- uC3c (C3c; Patient A, 100 mg TID, Day 16 Taper): 4.1 ng/mL
- uC3c (C3c; Patient A, 100 mg TID, Day 17 Taper): 8.5 ng/mL
- uC3c (C3c; Patient A, 100 mg TID, Day 21): 7.8 ng/mL
- uC3c (C3c; Patient A, 100 mg TID, Day 24): 11.4 ng/mL
- uC3c (C3c; Patient A, 100 mg TID, Day 28): 15.6 ng/mL
- uC3c (C3c; Patient A, 100 mg TID, Day 49): 32.8 ng/mL
- uC3c (C3c; Patient B, 100 mg TID, Day 1 predose): 771.1 ng/mL
- uC3c (C3c; Patient B, 100 mg TID, Day 4): 369.0 ng/mL
- uC3c (C3c; Patient B, 100 mg TID, Day 7-0 Hour): 289.2 ng/mL
- uC3c (C3c; Patient B, 100 mg TID, Day 10): 256.0 ng/mL
- uC3c (C3c; Patient B, 100 mg TID, Day 14): 462.7 ng/mL
- uC3c (C3c; Patient B, 100 mg TID, Day 15 Taper): 682.8 ng/mL
- uC3c (C3c; Patient B, 100 mg TID, Day 16 Taper): 534.1 ng/mL
- uC3c (C3c; Patient B, 100 mg TID, Day 17 Taper): 290.8 ng/mL
- uC3c (C3c; Patient B, 100 mg TID, Day 21): 513.5 ng/mL
- uC3c (C3c; Patient B, 100 mg TID, Day 24): 744.1 ng/mL
- uC3c (C3c; Patient B, 100 mg TID, Day 28): 285.3 ng/mL
- uC3c (C3c; Patient B, 100 mg TID, Day 49): >1000 ng/mL
- uC3c (C3c; Patient C, 200 mg TID, Day 1 predose): <1.6 ng/mL
- uC3c (C3c; Patient C, 200 mg TID, Day 4): <1.6 ng/mL
- uC3c (C3c; Patient C, 200 mg TID, Day 7-0 Hour): <1.6 ng/mL
- uC3c (C3c; Patient C, 200 mg TID, Day 10): <1.6 ng/mL
- uC3c (C3c; Patient C, 200 mg TID, Day 14): <1.6 ng/mL
- uC3c (C3c; Patient C, 200 mg TID, Day 15 Taper): <1.6 ng/mL
- uC3c (C3c; Patient C, 200 mg TID, Day 17 Taper): <1.6 ng/mL
- uC3c (C3c; Patient C, 200 mg TID, Day 21): <1.6 ng/mL
- uC3c (C3c; Patient C, 200 mg TID, Day 24): 2.1 ng/mL
- uC3c (C3c; Patient C, 200 mg TID, Day 28): <1.6 ng/mL
- uC3c (C3c; Patient C, 200 mg TID, Day 49): <1.6 ng/mL
- uC3c (C3c; Patient D, 200 mg TID, Day 1 predose): 8.8 ng/mL
- uC3c (C3c; Patient D, 200 mg TID, Day 4): 5.3 ng/mL
- uC3c (C3c; Patient D, 200 mg TID, Day 7-0 Hour): <1.6 ng/mL
- uC3c (C3c; Patient D, 200 mg TID, Day 10): <1.6 ng/mL
- uC3c (C3c; Patient D, 200 mg TID, Day 14): 3.7 ng/mL
- uC3c (C3c; Patient D, 200 mg TID, Day 15 Taper): 3.6 ng/mL
- uC3c (C3c; Patient D, 200 mg TID, Day 17 Taper): 4.8 ng/mL
- uC3c (C3c; Patient D, 200 mg TID, Day 21): 5.8 ng/mL
- uC3c (C3c; Patient D, 200 mg TID, Day 24): 5.1 ng/mL
- uC3c (C3c; Patient D, 200 mg TID, Day 28): 5.1 ng/mL
- uC3c (C3c; Patient D, 200 mg TID, Day 49): 7.0 ng/mL
- uC3c (C3c; Patient E, 200 mg TID, Day 1 predose): 159.6 ng/mL
- uC3c (C3c; Patient E, 200 mg TID, Day 4): 137.7 ng/mL
- uC3c (C3c; Patient E, 200 mg TID, Day 7-0 Hour): 168.2 ng/mL
- uC3c (C3c; Patient E, 200 mg TID, Day 10): 123.2 ng/mL
- uC3c (C3c; Patient E, 200 mg TID, Day 14): 64.4 ng/mL
- uC3c (C3c; Patient E, 200 mg TID, Day 15 Taper): 39.7 ng/mL
- uC3c (C3c; Patient E, 200 mg TID, Day 16 Taper): 46.8 ng/mL
- uC3c (C3c; Patient E, 200 mg TID, Day 17 Taper): 107.0 ng/mL
- uC3c (C3c; Patient E, 200 mg TID, Day 21): 41.2 ng/mL
- uC3c (C3c; Patient E, 200 mg TID, Day 24): 89.6 ng/mL
- uC3c (C3c; Patient E, 200 mg TID, Day 28): 97.8 ng/mL
- uC3c (C3c; Patient E, 200 mg TID, Day 49): 120.3 ng/mL
- uC3c (C3c; Patient F, 200 mg TID, Day 1 predose): 216.3 ng/mL
- uC3c (C3c; Patient F, 200 mg TID, Day 4): 63.0 ng/mL
- uC3c (C3c; Patient F, 200 mg TID, Day 7-0 Hour): 25.8 ng/mL
- uC3c (C3c; Patient F, 200 mg TID, Day 10): 43.9 ng/mL
- uC3c (C3c; Patient F, 200 mg TID, Day 14): 31.8 ng/mL
- uC3c (C3c; Patient F, 200 mg TID, Day 15 Taper): 24.2 ng/mL
- uC3c (C3c; Patient F, 200 mg TID, Day 16 Taper): 30.0 ng/mL
- uC3c (C3c; Patient F, 200 mg TID, Day 17 Taper): 32.4 ng/mL
- uC3c (C3c; Patient F, 200 mg TID, Day 21): 64.0 ng/mL
- uC3c (C3c; Patient F, 200 mg TID, Day 24): 34.4 ng/mL
- uC3c (C3c; Patient F, 200 mg TID, Day 28): 41.5 ng/mL
- uC3c (C3c; Patient F, 200 mg TID, Day 49): 154.5 ng/mL
- Urinary C3c levels (C3c; two-week treatment): reduced significantly
- Urinary C3c levels normalized to urinary creatinine or albumin (C3c; two-week treatment): reduced significantly
- Serum Factor D (Factor D): remained unchanged
- IC50 (AP activity): 14 nM
- Serum C3 (C3): increased
